From article PMC11079064, “Discovery of a brain penetrant small molecule antagonist targeting LPA1 receptors to reduce neuroinflammation and promote remyelination in multiple sclerosis” (Scientific Reports, 2024)
Like-named read-outs stand apart in the source and are kept apart here.

Experiments:
[1] = system: mouse cortical brain slices; experiment: Lysolecithin-treated mouse organotypic slice culture, MBP and Caspr immunostaining; type: cell-based; conditions: then 5 days treatment
Description: Slices were also evaluated using a histological endpoint. […] Caspr clustering was used as a marker for nodes of Ranvier formation which implicates the presence of functional axons that have responded to myelination[39],[40].
Immunohistological evaluation of MBP and Caspr in mouse brain slice culture: Brain slices were cultured as described above. After compound treatment, slices were fixed in 4% PFA for 30 m, blocked in 10% donkey serum, 0.2% Triton X-100, followed by overnight incubation in primary antibodies in blocking solution. Antibodies used were MBP (rat, 1:500, Millipore, Temecula, CA), Caspr (rabbit 1:250 Abcam, Fremont, CA) Tuj1 (mouse, 1:500, Biolegend, San Diego, CA). Slices were washed with 3 × 15 m PBS followed by incubation with secondary antibodies (anti-rat, Alexa488; anti-rabbit, Alexa568, anti-mouse, Alexa647, Hoechst counterstain) in blocking buffer. All secondary antibodies were produced in donkey (Invitrogen, Carlsbad, CA, Carlsbad, CA) and used at 1:250. Filters were excised from insert, mounted with Fluoromount (Millipore Sigma, St. Louis) on a microscope slide and coverslipped. […] Image analysis was performed using ImageJ. MBP was expressed as MBP surface area normalized to Hoechst cell count; Caspr was expressed as the number of Caspr puncta normalized to Tuj1 intensity.

[2] = system: rat OPCs; experiment: OPC differentiation assay (PDGF withdrawal, MBP+ oligodendrocytes); type: cell-based; conditions: PDGF removed, 3 days treatment, percent of T3 induced differentiation; read-out: EC50 of increase in differentiated MBP+ oligodendrocytes
Description: Given the expression of Lpar1 on OPCs, we wanted to know how direct, exogenous application of LPA would affect OPC differentiation. Using the same PDGF withdrawal paradigm to induce OPC differentiation, we added various concentrations of LPA to the culture media and quantified MBP^+ oligodendrocytes 3 days later.
Primary rat OPCs were isolated and cultured in the presence of PDGF. One day later, PDGF was removed and various doses of PIPE-791 were added to the cultures. These cultures were fixed 3 days post-PIPE-791 treatment and immunostained for MBP.
OPC isolation: For immunopanning purification of OPCs, cortical hemispheres were dissected from postnatal day 8 Sprague–Dawley rat pups. Tissue culture dishes were incubated overnight with goat IgG secondary antibodies to mouse (Jackson Laboratories, Bar Harbor, ME). Dishes were rinsed and incubated at room temperature with primary antibodies for Ran-2, GalC and O4 (gift from Jonah Chan lab). Rodent cortical hemispheres were minced and dissociated with papain (Thermo Fisher, Waltham, MA) for 1 h at 37°. After dissociation, cells were resuspended in a panning buffer (0.2% BSA in DPBS) and incubated at room temperature sequentially on three immunopanning dishes: Ran-2 and GalC were used for negative selection before positive selection with O4. […]

[3] = system: microglia; experiment: Microglial myelin debris phagocytosis assay; type: cell-based, rat; conditions: any concentration, activated microglia, 90 min myelin debris
Description: Fluoromyelin-labeled myelin debris was added for 90 min and then the cultures were fixed. IBA1^+/fluoromyelin^+ cells were quantified and normalized to total IBA1^+ cells.
For phagocytosis, microglia were harvested from cortical cultures generated from P2 rats. Cortices were isolated, meninges removed, minced and digested in 0.05% trypsin (Invitrogen, Carlsbad, CA, Carlsbad, CA) for 15 min at 37 °C. Tissue was allowed to settle, trypsin removed and HBSS (Corning, Glendale, AZ) with 20% FBS (20% HBSS) was added to halt further digestion. Tissue was washed again in 20% HBSS and resuspended in DMEM with 10% FBS and penicillin/streptomycin (10% DMEM). Cells were plated in a T150 flask and cultured for 10 days with media changes every other day. Microglia were mechanically isolated by tapping flask against the hood surface. Microglia were transferred to a conical and centrifuged at 800 × g for 15 min and resuspended in 10% DMEM, plated in 96 wells at a density of 5000/well and cultured for 3 days. […] Fluoromyelin labeled myelin debris was added to each well and incubated for 90 min. Microglia were then fixed and immunostained for IBA1 (Invitrogen, Carlsbad, CA, Carlsbad, CA). […]
Supplemental Figure 7. […] Total IBA1^+ and IBA1^+/fluoromyelin^+ cells were counted. […]

[4] = biological target: T1, LPA1 (Mus musculus, UniProt P61793); experiment: In vivo brain binding of [3H]-OPC3497 radioligand; conditions: PIPE-791 dosed orally 2 h prior; 5 and 30 minutes after radioligand
T1 construct: from tissue; host or cells: mouse brain (homogenate; forebrain of dosed C57BL6/N mice in the in vivo studies)
Description: Supplemental Figure 3. OPC3497 is a suitable radioligand for evaluating LPA1 receptor occupancy. Following IV administration, [^3H]-OPC3497 binding in mouse brain increased rapidly, peaked 5 minutes post-dose and declined sharply over the evaluation period (2 h).

T1 sequence (P61793 whole entry): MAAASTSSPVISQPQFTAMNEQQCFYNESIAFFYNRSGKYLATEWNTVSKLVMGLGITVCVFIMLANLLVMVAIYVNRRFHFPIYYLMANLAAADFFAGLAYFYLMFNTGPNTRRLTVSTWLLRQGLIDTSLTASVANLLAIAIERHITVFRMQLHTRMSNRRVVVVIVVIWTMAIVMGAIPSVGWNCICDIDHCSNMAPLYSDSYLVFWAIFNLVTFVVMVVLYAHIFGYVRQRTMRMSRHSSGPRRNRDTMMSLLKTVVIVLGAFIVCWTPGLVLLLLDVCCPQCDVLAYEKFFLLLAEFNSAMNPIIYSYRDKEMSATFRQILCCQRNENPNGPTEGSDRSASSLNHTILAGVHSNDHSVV

Which results are given for `COc1ccc(NC(=O)N(c2ccccc2C(C)C)C2CCC(C(=O)O)CC2)c(OC(F)F)n1` (centres unmarked) [PIPE-791]?
EC50 ([1]; read-out: EC50 of MBP+ area increase): 74 nM; EC50 ([1]; read-out: EC50 of increase in number of Caspr puncta): 17.9 nM; EC50 [2]: 108 nM; effect on myelin phagocytosis compared to vehicle [3]: No significant decrease; effect on total [3H]-OPC3497 binding in brain [4]: significantly reduced
